Assay results as given in ChEMBL document CHEMBL5465560, “Selectivity Literature for EUbOPEN Chemogenomic Library” (2024).
Each block holds one compound with its values, some of them ahead of it.

Assays:
[1] = biological target: Phosphatidylinositol 4-kinase beta (Homo sapiens, UniProt Q9UBF8); assay: Selectivity interaction (Enzyme panel (AstraZeneca, AlphaScreen, functional assay)) EUB0000621a PI4KB
[2] = biological target: T1, MAP kinase-activated protein kinase 5 (Homo sapiens) (UniProt Q8IW41); assay: Selectivity interaction (KinaseProfiler screening (Millipore)) EUB0000601a MAPKAPK5; conditions: at 3 µM
T1 sequence (whole entry): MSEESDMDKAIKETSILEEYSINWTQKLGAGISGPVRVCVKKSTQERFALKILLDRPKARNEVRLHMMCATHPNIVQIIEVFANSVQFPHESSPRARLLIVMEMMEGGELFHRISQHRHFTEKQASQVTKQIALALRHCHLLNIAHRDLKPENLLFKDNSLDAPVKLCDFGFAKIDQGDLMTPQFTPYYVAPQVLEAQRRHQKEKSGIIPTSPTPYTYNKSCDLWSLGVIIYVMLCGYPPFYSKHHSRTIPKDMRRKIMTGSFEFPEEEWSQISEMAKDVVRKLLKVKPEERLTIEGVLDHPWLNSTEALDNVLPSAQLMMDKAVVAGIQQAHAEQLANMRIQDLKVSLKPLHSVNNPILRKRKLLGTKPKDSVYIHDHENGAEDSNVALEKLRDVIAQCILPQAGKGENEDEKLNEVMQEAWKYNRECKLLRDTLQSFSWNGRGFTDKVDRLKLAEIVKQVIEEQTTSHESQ

[3] = biological target: Cyclin-dependent kinase 2 (Homo sapiens, UniProt P24941); assay: Selectivity interaction (ActivX KiNativ screen (kinase selectivity in THP-1 cell lysates)) EUB0000639a CDK2; format: subcellular; conditions: lysate, at 1 µM
[4] = biological target: Platelet-derived growth factor receptor alpha (Homo sapiens, UniProt P16234); assay: Selectivity interaction (Kinase panel (Invitrogen)) EUB0000639a PDGFRA; conditions: at 200 nM
Platelet-derived growth factor receptor alpha, sequence (P16234 whole entry): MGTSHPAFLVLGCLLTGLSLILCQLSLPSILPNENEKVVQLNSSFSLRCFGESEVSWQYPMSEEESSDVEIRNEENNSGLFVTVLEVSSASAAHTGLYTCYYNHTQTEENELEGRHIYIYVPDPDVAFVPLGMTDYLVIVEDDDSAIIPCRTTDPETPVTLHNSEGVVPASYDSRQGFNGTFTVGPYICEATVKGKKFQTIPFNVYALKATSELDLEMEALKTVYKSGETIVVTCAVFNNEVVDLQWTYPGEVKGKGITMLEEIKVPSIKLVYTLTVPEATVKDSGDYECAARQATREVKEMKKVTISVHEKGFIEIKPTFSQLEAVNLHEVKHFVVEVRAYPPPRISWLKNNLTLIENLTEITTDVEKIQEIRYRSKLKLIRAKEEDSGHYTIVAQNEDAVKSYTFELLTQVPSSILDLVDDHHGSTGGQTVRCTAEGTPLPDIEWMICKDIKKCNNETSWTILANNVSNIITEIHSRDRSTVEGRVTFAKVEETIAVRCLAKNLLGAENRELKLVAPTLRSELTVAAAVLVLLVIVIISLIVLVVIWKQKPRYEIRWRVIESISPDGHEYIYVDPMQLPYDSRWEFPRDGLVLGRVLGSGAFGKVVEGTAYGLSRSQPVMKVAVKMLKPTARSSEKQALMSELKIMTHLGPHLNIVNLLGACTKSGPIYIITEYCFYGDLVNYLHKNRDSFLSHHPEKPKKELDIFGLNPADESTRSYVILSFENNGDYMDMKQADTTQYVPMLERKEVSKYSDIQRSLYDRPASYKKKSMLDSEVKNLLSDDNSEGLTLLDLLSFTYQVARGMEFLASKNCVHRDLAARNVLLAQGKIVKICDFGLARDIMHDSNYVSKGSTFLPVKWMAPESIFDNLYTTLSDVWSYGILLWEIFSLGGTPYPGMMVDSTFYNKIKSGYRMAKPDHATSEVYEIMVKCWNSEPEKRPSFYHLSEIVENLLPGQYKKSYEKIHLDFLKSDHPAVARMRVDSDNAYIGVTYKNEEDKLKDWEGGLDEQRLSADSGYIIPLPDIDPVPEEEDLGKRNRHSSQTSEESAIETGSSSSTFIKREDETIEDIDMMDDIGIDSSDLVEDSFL

[5] = biological target: TRAF2 and NCK-interacting protein kinase (Homo sapiens) (UniProt Q9UKE5); assay: Selectivity interaction (KinomeScan (DiscoverX)) EUB0000695a TNIK; conditions: at 100 nM
[6] = biological target: T2, Mitogen-activated protein kinase kinase kinase kinase 3 (Homo sapiens) (UniProt Q8IVH8); assay: Selectivity interaction (KinomeScan (DiscoverX)) EUB0000595a MAP4K3; conditions: at 10 µM
T2 sequence (whole entry): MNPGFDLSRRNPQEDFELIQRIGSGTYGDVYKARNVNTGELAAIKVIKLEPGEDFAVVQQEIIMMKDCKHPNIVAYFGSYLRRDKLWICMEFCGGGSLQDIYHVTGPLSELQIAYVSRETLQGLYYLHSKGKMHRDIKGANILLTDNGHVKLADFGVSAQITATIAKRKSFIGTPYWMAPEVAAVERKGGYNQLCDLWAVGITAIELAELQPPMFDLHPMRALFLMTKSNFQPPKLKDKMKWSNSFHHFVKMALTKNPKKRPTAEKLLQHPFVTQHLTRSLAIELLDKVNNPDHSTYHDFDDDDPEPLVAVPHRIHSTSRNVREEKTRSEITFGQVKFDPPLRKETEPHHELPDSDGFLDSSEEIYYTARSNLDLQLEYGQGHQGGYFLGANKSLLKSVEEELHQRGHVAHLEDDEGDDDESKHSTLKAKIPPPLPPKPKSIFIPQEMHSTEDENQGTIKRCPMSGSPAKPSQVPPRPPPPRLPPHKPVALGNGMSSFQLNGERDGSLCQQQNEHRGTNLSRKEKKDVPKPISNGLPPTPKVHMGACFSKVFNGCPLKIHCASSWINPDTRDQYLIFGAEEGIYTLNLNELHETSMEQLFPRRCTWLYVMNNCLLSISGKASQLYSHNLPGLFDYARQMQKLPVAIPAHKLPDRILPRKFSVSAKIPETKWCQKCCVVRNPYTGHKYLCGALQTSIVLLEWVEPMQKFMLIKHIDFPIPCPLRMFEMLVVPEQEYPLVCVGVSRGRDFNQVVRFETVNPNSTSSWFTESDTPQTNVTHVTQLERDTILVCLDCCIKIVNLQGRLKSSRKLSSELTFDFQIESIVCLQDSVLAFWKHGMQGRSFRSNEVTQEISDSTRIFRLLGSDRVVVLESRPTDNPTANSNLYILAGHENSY

[7] = biological target: Activated CDC42 kinase 1 (Homo sapiens, UniProt Q07912); assay: Selectivity interaction (KinomeScan (DiscoverX)) EUB0000229b TNK2; conditions: at 10 µM
Activated CDC42 kinase 1, sequence (Q07912 whole entry, looked up): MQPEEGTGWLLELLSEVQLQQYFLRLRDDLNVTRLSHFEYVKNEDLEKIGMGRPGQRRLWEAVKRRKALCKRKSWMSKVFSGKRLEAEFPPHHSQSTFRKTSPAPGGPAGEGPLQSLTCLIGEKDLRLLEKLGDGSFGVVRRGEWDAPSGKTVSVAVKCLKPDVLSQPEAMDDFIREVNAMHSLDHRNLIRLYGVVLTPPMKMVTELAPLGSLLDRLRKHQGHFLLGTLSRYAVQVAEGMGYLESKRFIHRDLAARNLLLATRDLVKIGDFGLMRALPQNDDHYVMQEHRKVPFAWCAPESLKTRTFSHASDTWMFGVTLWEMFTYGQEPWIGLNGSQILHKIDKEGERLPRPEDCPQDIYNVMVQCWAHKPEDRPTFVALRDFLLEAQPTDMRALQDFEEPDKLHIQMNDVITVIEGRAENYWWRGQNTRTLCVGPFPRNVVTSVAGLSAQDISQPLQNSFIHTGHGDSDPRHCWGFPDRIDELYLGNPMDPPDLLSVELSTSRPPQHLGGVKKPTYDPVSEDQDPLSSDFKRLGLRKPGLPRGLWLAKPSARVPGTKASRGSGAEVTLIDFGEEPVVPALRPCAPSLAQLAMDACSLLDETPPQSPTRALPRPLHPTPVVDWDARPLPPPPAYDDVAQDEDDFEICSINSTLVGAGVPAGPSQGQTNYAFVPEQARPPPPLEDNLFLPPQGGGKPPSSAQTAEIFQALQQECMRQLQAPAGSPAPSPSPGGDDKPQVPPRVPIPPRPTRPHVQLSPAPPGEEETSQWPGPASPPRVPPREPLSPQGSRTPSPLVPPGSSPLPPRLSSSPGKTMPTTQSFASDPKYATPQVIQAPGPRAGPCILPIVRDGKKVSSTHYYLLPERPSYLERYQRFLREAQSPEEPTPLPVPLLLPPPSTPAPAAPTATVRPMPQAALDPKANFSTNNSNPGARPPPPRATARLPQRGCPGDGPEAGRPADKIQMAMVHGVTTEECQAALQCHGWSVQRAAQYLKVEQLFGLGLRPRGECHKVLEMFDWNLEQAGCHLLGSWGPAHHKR

[8] = biological target: G protein-coupled receptor kinase 5 (Homo sapiens, UniProt P34947); assay: Selectivity interaction (Upstate Kinase Profiler service (Millipore)) EUB0000056c GRK5; conditions: at 1 µM
G protein-coupled receptor kinase 5, sequence (P34947 whole entry, looked up): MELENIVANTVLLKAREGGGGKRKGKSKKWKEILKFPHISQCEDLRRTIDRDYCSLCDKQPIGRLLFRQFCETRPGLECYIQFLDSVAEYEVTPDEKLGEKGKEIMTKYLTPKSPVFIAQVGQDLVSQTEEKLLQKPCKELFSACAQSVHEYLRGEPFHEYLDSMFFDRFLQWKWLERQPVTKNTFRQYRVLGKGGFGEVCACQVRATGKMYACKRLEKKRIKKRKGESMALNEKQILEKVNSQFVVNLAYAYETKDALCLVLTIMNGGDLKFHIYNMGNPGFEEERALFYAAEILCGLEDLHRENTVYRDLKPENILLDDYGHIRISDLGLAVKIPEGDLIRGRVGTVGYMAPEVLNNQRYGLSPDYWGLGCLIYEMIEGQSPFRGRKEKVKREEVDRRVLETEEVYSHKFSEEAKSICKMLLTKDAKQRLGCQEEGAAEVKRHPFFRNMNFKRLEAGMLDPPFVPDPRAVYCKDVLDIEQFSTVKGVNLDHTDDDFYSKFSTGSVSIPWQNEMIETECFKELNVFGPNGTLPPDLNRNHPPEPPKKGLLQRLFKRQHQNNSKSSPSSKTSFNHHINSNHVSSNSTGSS

[9] = biological target: T3, Myotonin-protein kinase (Homo sapiens) (UniProt Q09013); assay: Selectivity interaction (KinomeScan (DiscoverX)) EUB0000045b DMPK
T3 sequence (whole entry): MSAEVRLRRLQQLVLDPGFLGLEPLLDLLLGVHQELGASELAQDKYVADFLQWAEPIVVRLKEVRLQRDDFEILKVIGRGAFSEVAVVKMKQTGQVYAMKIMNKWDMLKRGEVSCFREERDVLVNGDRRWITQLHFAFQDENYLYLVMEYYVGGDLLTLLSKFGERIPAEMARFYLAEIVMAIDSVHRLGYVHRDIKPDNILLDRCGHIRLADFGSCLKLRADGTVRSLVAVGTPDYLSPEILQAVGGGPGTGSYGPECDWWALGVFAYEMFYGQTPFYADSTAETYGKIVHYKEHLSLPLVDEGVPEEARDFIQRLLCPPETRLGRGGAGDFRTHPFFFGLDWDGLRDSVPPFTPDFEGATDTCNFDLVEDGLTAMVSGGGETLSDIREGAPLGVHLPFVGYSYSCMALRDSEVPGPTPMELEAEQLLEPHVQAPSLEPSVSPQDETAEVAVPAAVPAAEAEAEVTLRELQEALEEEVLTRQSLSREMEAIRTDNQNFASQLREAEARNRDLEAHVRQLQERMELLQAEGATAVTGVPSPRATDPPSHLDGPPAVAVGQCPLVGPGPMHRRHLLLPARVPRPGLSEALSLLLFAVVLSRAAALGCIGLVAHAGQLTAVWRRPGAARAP

[10] = system: Epidermal growth factor receptor (Homo sapiens), P00533 [UNDEFINED MUTATION]; assay: Selectivity interaction (KinomeScan (DiscoverX)) EUB0000655a EGFR; conditions: at 10 µM
[11] = biological target: Mitogen-activated protein kinase kinase kinase 11 (Homo sapiens) (UniProt Q16584); assay: Selectivity interaction (KinomeScan (DiscoverX)) EUB0001619a MAP3K11; conditions: at 1 µM
Mitogen-activated protein kinase kinase kinase 11 (Homo sapiens), sequence (Q16584 whole entry, looked up): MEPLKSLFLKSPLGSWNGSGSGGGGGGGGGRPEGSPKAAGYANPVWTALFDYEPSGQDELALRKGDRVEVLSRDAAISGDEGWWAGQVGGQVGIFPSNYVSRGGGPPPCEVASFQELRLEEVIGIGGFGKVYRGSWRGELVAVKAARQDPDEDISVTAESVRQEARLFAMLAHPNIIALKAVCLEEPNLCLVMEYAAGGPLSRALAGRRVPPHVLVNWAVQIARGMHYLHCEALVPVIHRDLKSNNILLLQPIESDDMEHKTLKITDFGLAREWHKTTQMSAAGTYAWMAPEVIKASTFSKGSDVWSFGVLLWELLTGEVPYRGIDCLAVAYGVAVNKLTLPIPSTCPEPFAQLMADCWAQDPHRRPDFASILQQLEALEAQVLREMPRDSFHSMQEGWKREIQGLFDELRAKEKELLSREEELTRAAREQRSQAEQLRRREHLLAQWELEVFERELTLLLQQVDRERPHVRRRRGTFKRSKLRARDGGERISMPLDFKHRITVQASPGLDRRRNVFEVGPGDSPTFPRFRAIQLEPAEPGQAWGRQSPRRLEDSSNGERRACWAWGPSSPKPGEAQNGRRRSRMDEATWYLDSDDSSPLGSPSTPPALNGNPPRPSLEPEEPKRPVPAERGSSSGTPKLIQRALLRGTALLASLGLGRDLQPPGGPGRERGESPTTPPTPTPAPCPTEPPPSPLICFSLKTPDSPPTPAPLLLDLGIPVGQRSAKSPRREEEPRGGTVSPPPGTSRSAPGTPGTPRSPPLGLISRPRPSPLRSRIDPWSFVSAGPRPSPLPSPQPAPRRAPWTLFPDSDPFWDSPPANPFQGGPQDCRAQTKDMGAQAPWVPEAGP

[12] = biological target: Calcium/calmodulin-dependent protein kinase type II subunit alpha (Homo sapiens, UniProt Q9UQM7); assay: Selectivity interaction (SelectScreen profiling (Invitrogen)) EUB0000607a CAMK2A; conditions: at 2 µM
Calcium/calmodulin-dependent protein kinase type II subunit alpha, sequence (Q9UQM7 whole entry): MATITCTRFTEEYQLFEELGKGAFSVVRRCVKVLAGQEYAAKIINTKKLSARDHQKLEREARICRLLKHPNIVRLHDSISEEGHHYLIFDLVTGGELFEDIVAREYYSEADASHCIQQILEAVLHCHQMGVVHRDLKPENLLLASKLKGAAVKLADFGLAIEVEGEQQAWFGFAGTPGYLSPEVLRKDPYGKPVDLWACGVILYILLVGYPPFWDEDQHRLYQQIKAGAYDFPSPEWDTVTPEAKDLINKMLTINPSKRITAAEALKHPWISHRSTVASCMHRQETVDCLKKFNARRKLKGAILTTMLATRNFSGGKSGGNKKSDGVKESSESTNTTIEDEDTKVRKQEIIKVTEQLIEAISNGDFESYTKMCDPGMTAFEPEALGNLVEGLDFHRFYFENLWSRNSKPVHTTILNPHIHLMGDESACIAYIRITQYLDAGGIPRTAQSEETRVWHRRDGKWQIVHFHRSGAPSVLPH

Phosphatidylinositol 4-kinase beta, sequence (Q9UBF8 whole entry): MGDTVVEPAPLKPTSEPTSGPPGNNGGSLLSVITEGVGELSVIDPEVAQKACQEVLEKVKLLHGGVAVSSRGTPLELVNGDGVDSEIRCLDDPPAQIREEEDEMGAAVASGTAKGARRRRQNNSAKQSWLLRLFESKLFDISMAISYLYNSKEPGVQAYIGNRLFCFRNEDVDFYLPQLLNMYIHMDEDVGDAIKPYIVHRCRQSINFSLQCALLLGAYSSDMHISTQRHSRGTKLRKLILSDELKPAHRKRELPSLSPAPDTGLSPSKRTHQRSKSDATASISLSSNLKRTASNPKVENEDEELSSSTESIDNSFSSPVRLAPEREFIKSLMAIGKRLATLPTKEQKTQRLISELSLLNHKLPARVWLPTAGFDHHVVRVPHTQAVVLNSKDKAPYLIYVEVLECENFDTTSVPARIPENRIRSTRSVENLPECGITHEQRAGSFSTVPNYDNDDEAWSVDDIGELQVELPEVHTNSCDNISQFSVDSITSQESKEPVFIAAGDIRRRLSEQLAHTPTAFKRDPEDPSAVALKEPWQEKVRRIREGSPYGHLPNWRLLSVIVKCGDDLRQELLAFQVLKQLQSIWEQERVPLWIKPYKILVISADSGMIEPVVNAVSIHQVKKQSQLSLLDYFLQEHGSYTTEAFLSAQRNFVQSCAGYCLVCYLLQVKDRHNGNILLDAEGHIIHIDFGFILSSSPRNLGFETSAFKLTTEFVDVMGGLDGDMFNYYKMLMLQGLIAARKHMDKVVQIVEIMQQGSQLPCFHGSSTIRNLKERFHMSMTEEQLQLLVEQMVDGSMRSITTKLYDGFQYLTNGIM

SMILES: Cc1cc([C@@H](C)Nc2ccccc2C(=O)O)c2nc(N3CCOCC3)cc(=O)n2c1 [AZD-6482]
IC50 [1]: 0.01 µM

% of inhibition [2]: 35%
SMILES: CCc1cc(Nc2nccc(-c3c(-c4ccc(OC)c(C(=O)Nc5c(F)cccc5F)c4)nc4ccccn34)n2)c(OC)cc1N1CCC(N2CCN(S(C)(=O)=O)CC2)CC1

% of inhibition [3]: -10.5% | % of inhibition [4]: -0.518%
SMILES: CC[C@@H]1[C@H](F)C(=O)N[C@@H]1COc1nccc2cc(C(N)=O)c(OC)cc12 [ZIMLOVISERTIB]

SMILES: Cc1cc(F)c(C(=O)Nc2cccc(-c3nncn3C(C)C)n2)cc1-n1cnc(C2CC2)c1
% of control [5]: 78%

SMILES: COCC(=O)NC/C=C/c1ccc2ncnc(Nc3ccc(Oc4ccc(C)nc4)c(C)c3)c2c1 [CP-724714]
% of control [6]: 80%

SMILES: COc1cc(N(C)c2ccnc3ccc(C(F)(F)F)cc23)cc(OC)c1OC
% binding [7]: 89%

% of inhibition [8]: -23%
SMILES: Cc1ccc(-c2ccc3c(ccc4sc5c(c43)NC[C@@H](C)NC5=O)n2)cn1

SMILES: C=CC(=O)Nc1cc(-n2c(=O)ccc3cnc4ccc(-c5ccc(NS(C)(=O)=O)cc5)cc4c32)ccc1C
% of control ([9]; at 1 µM): 91% | % of control ([9]; at 10 µM): 100%

SMILES: CN(C)CCOc1ccc(-c2nc(-c3ccncc3)c(-c3ccc4c(c3)CC/C4=N\O)[nH]2)cc1
% of control [10]: 54%

SMILES: N#Cc1cccc(-c2c[nH]c3ncnc(N4CCOCC4)c23)c1
% of control [11]: 100%

SMILES: CNC(=O)Nc1ccc(-c2nc(N3CC4CCC(C3)O4)c3cnn(C4CCC5(CC4)OCCO5)c3n2)cc1
% of inhibition [12]: 0%
